Earlier results in patent US11857530B2, “Cannabinoid formulations” (Endocanna Health, Inc., priority 2017, dated 2024).

Tests used:
CYP3A4 = CYP3A4 (Homo sapiens, UniProt P08684); conditions: after oromucosal dosing; for boost of THC and CBD levels by ketoconazole: co-administered CYP3A4 inhibitor ketoconazole; for boost of THC and CBD levels by the CYP3A4 inhibitor ketoconazole: clinical studies, co-administered ketoconazole
ABCB1 = ABCB1 (Homo sapiens, UniProt P08183)
Chain of ABCB1 (P08183 whole entry): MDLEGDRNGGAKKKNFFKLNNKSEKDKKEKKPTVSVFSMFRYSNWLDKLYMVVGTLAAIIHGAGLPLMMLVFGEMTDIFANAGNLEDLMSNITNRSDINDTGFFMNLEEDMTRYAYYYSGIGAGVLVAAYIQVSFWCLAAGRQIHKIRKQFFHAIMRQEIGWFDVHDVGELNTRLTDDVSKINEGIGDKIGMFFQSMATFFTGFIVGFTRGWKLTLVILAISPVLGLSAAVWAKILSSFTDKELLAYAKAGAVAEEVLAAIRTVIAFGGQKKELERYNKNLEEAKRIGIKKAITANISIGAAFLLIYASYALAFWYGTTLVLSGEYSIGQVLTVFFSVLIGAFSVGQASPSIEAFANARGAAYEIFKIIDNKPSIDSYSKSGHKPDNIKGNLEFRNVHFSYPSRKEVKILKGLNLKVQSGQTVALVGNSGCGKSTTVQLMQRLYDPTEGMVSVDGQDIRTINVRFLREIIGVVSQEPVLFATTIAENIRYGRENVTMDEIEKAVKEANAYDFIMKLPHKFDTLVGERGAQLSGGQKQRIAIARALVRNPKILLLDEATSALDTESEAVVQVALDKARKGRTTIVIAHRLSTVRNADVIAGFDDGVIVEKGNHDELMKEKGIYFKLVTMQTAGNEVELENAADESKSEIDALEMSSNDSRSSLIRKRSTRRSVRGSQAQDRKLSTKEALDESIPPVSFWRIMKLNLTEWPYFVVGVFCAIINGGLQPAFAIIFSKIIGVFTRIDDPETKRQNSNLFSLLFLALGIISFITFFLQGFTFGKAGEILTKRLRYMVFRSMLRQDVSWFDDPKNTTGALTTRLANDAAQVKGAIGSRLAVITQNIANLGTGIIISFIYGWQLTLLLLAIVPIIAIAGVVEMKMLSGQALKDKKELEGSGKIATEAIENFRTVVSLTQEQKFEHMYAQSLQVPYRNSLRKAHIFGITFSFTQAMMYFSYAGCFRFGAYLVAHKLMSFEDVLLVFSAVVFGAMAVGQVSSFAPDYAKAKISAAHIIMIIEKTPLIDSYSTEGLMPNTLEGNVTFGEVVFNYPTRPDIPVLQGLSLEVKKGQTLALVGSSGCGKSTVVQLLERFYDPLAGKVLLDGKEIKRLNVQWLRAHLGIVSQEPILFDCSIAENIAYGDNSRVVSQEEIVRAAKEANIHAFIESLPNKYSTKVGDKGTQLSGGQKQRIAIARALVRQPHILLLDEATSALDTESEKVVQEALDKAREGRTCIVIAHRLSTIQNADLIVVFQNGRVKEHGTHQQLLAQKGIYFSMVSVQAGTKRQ

Chain of CYP3A4 (P08684 whole entry): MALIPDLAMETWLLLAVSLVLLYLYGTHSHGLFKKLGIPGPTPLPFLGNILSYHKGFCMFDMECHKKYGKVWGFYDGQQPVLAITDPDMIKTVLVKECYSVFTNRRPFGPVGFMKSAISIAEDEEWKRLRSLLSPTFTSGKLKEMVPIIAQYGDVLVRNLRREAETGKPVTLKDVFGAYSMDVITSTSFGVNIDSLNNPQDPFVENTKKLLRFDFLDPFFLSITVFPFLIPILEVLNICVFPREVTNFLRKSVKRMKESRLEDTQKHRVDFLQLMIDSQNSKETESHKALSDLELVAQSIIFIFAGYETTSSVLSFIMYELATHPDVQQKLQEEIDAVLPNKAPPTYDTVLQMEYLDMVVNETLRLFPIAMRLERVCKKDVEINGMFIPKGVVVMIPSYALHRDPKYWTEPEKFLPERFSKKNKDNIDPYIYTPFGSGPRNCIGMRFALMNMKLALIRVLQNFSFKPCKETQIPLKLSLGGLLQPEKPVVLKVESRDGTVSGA

Compound: C=C(C)[C@@H]1CCC(C)=C[C@H]1c1c(O)cc(CCCCC)cc1O [CBD, Cannabidiol]
- boost of THC and CBD levels by ketoconazole (CYP3A4): approximately 2 fold
- boost of THC and CBD levels by the CYP3A4 inhibitor ketoconazole (CYP3A4): dosing by approximately 2-fold

Compound: CCCCCc1cc(O)c2c(c1)OC(C)(C)[C@@H]1CCC(C)=C[C@@H]21 [THC, Tetrahydrocannabinol]
- boost of THC and CBD levels by ketoconazole (CYP3A4): approximately 2 fold
- boost of THC and CBD levels by the CYP3A4 inhibitor ketoconazole (CYP3A4): dosing by approximately 2-fold
- THC levels, fold lower, Homozygous MINOR Alleles (T/T) (ABCB1; ABCB1 SNIP 2-01-AFMLG, genotype T/T): may have 2-fold lower
- blood THC levels after consuming THC (ABCB1; users with homozygous alleles (T/T) at rs1045642 of ABCB1, relative to people with a different genotype): two-fold lower
